{"source": "patent US20240016924A1", "about": "“NEW ADJUVANT TO IMPROVE THE INNATE IMMUNITY” (INSTITUT NATIONAL DE LA SANTÉ ET DE LA RECHERCHE MÉDICALE, priority 2020, published 2024)", "key": {"[1]": {"tested_on": "primary human nasal epithelial cells (HNECs)", "experiment": "TSLP secretion in primary human nasal epithelial cells", "format": "cell-based", "conditions": "GalCer-dependent", "procedure": "Primary human nasal epithelial cells (HNECs, purchased from PromoCell, Heidelberg, Germany) were isolated from nasal septum or adenoids of healthy donors. Cells from two independent donors were obtained. HNECs were cultured in airway epithelial cell basal medium (PromoCell) and supplemented with airway epithelial cell growth SupplementMix (PromoCell) and only cells from passage 2 to 6 were used.\n(§1) TSLP, IL-25/IL-17E, IL-33, IFN-γ, IL-10, IL-12/23p40, IL-4, IL-5, IL-6, IL-13, TNF-α, MMP-9, IL-8/CXCL8, […], MDC/CCL22, TARC/CCL17, APRIL and BAFF were measured in culture supernatants from indicated experiments with custom multiplex Luminex assays (Bio-techne) according to the manufacturer's instructions. Additionally, when indicated TSLP was measured in culture supernatants by enzyme-linked immunosorbent assay (ELISA) with a limit of detection of 8 pg/ml (Thermo Fisher) according to the manufacturer's instructions."}, "nasal RPMI cells [2]": {"tested_on": "nasal RPMI cells", "experiment": "Quantitative RT-PCR for short and long form TSLP, nasal RPMI cells", "format": "cell-based, human", "procedure": "(§2) The expression of short and long form TSLP was quantified as described (Bjerkan, Schreurs et al. 2015, Dong, Hu et al. 2016). Briefly, total RNA was extracted using Trizol. Five hundred nanograms of RNA were treated with ezDNase Enzyme (Thermo Fisher) to remove genomic DNA, and reverse transcribed into cDNA using the kit SuperScript IV VILO Master Mix according to manufacturer instructions (Thermo Fisher). Quantitative PCR was performed using reported primers (Dong, Hu et al. 2016) and the PowerUp SYBR Green Master Mix according to manufacturer instructions (Thermo Fisher). Reactions were performed in triplicates, with glyceraldehyde-3-phosphate dehydrogenase (GAPDH) as the internal control. Amplification, data acquisition, and analysis were carried out using the LightCycler 480 Software (Roche, Mannheim, Germany). The levels of TSLP mRNA were normalized to the levels of GAPDH using the ΔCt method (Schmittgen and Livak 2008) and were presented as 2-ΔCt values."}, "primary HNECs": {"tested_on": "primary HNECs", "experiment": "Quantitative RT-PCR for short and long form TSLP, primary HNECs", "format": "cell-based, human", "procedure": "as §2"}, "nasal RPMI cells [3]": {"tested_on": "nasal RPMI cells", "experiment": "Calcium measurement (Fura-2/AM), nasal RPMI cells", "format": "cell-based, human", "conditions": "P1 125 μM vs 2511M, controls at 125 μM, n=3", "procedure": "(§3) 70-80% confluent RPMI 2650 or HNEC cells in 24-well plate were loaded with […] Fura-2/AM (Molecular Probes) in basal medium without serum/growth factors for 1 hour at 37° C. Cells were washed twice with mammalian saline (Conche, Boulla et al. 2009) and measurements were performed in complete medium supplied with HEPS (10 mM) and CaCl2 (2 mM) as described add (Conche, Boulla et al. 2009). Images were acquired with an inverted fluorescence microscope (Observer Z1, Zeiss, Germany) and analyzed with MetaMorph software (Guichard, Bonilla et al. 2017) Calcium was measured every 5 seconds by video fluorescence imaging. Results were expressed as 340 nm to 380 nm fluorescence ratio and normalized to the baseline, i.e. ratio at time zero was set as 1."}, "primary HNEC cells": {"tested_on": "primary HNEC cells", "experiment": "Calcium measurement (Fura-2/AM), primary HNEC cells", "format": "cell-based, human", "conditions": "P1 125 μM vs 2511M, controls at 125 μM, n=3", "procedure": "as §3"}, "nasal RPMI cells [4]": {"tested_on": "nasal RPMI cells", "experiment": "Cytokines and chemokines quantification (Luminex), nasal RPMI cells", "format": "cell-based, human", "conditions": "125 μM, 24 hrs", "procedure": "as §1\nWe next investigated whether, in addition to TSLP, P1 could stimulate epithelial secretion of additional immune factors prone to attract antigen presenting cells (APCs). […] Together with TSLP (Zhou, Xu et al. 2018), this set of immune factors could facilitate recruitment of APCs to the mucosal surface for initiation of an immune response, since CCL20 and CCL2 chemo-attract macrophages and immature dendritic cells (DCs), and MMP-9 degrades the extracellular matrix and facilitates the migration of immune cells in or out the epithelium. Treg cells have IgA-inducing functions and require RA, TGF-b1, IL-10, and TSLP from intestinal epithelial cells and DCs. So, we assumed IL-10 released from either EC or DC may contribute to IgA class switching (Gutzeit, Magri, et al. 2014)."}, "Monocyte-derived DCs": {"tested_on": "Monocyte-derived DCs", "experiment": "DC-EC co-culture and DC activation", "format": "cell-based, human", "procedure": "Monocyte-derived DCs (DCs) were generated from primary human monocytes obtained from PBMCs (purity>98%) as described (Sallusto and Lanzavecchia 1994, Magérus-Chatinet, Yu et al. 2007). In brief, human peripheral blood mononuclear cells (PBMC) were separated from healthy donors blood (EFS, Paris, France), and monocytes were purified from PBMC by negative selection according to manufacturer instructions (StemCell Technologies, France). DCs were obtained by incubating monocytes for 7 days in complete medium containing GM-CSF (100 ng/ml) and IL-4 ([…]).\nThree DC culture systems were developed. Monocytes derived DCs (5×10^5 cells) were incubate for 24 h in medium alone and considered as non-mucosal DCs (DCs) or co-cultured with nasal epithelial cell (RPMI-2650 cell line) monolayer in 24-well plate (DC-EC or eduDC systems for 24 hours at 37° C. In turn, DCs were either further cultured with ECs during P1 stimulation (DC-ECs) or separated from EC and transferred into a new plate (eduDCs) for further P1 treatment. Subsequently, P1 (clade B, 125 μM) or medium were added to each of the DCs, DC-ECs or eduDCs cultures for 16 hrs. DCs were collected for surface staining with allophycocyanin (APC)-conjugated anti-CD86, R-phycoerythrin (PE)-conjugated anti-CD83, APC-conjugated anti-TSLPR, PE-conjugated anti-IL-7Rα antibodies (all from Bio-Techne). Specific labeling was quantified by flow cytometry using a Guava EasyCyte flow cytometer and the InCyte software (Merck) described (Duchemin, Khamassi et al. 2018). Culture supernatant were collected and frozen at −80° C. for subsequent cytokine and chemokine analyses.\nIn particular, mucosal DCs modulate their functions by interacting with epithelial cells (ECs) including via epithelial secretion of TSLP (Rimoldi, Chieppa et al. 2005, Biton, Levin et al. 2011). Thus, we established a simplified mucosal DC model, by co-culturing DCs and nasal ECs (RPMI-2650 cell line), thereby mimicking the nasal mucosal environment. DCs were first ‘educated’ by a 24 hr co-culture with ECs. Subsequently, these ‘educated’ DCs were either maintained in culture with ECs and referred to as DC-EC, or separated from the epithelium and referred to as eduDC. Alternatively, DCs only cultured with medium represented ‘non-mucosal’ DCs."}}, "data": [{"sequence": "SQNQQEKNEQELLELDKWASLWNWFNITNWLWYIK [P1]", "values": [{"measurement": "TSLP secretion", "setting": "[1]", "result": "induces primary human nasal epithelial cells (HNECs) to secrete TSLP"}, {"measurement": "increase of lfTSLP transcription compared to unstimulated cells", "setting": "nasal RPMI cells [2]; p=0.02, n=5", "result": 1.9, "unit": "fold"}, {"measurement": "level of the sfTSLP transcript", "setting": "nasal RPMI cells [2]; upon P1 stimulation", "result": "remains unchanged"}, {"measurement": "increase of lfTSLP transcription compared to unstimulated cells", "setting": "primary HNECs; HNECs, p=0.004, n=6", "result": 5.9, "unit": "fold"}, {"measurement": "level of the sfTSLP transcript", "setting": "primary HNECs; upon P1 stimulation, primary HNECs", "result": "remains unchanged"}, {"measurement": "extracellular calcium influx (340/380 nm ratio)", "setting": "nasal RPMI cells [3]", "result": "induces an immediate extracellular calcium influx in a concentration-dependent manner"}, {"measurement": "extracellular calcium influx (340/380 nm ratio)", "setting": "primary HNEC cells", "result": "induces an immediate extracellular calcium influx in a concentration-dependent manner"}, {"measurement": "secretion of MMP-9, CCL20, CCL2 and IL-10", "setting": "nasal RPMI cells [4]", "result": "selectively induced the secretion of MMP-9, CCL20, CCL2 and IL-10"}, {"measurement": "expression of maturation markers CD83 and CD86", "setting": "Monocyte-derived DCs; 'non-mucosal' DCs, P1 125 μM overnight", "result": "has no effect"}, {"measurement": "IFN-γ secretion", "setting": "Monocyte-derived DCs; DC models upon P1 stimulation", "result": "remains unchanged upon P1-stimulation or slightly decreases in DC-EC"}, {"measurement": "expression of TSLP receptor (TSLP-R and IL-7Rα)", "setting": "Monocyte-derived DCs; DCs in all three models", "result": "significantly enhanced the expression of TSLP receptor"}, {"measurement": "IL-12, IL-13, CCL2, CCL17, TNF-α, APRIL and BAFF secretion", "setting": "Monocyte-derived DCs; DCs, DC-EC, eduDC", "result": "secreted equally in all three models"}, {"measurement": "TSLP secretion", "setting": "Monocyte-derived DCs; eduDC and DC-EC models", "result": "more modest"}, {"measurement": "IL-6, IL-8, IL-10, CCL20, CCL22 and MMP-9 secretion", "setting": "Monocyte-derived DCs; eduDC and DC-EC models compared with non-mucosal DCs", "result": "significant increase"}, {"measurement": "expression of co-stimulatory molecules CD83 and CD86", "setting": "Monocyte-derived DCs; mucosal DCs (DC-EC or eduDCs), P1 125 μM overnight, versus untreated", "result": "significant up-regulation"}, {"measurement": "IL-25, IL-33, IL-4, IL-5 secretion", "setting": "Monocyte-derived DCs; whatever the model", "result": "remain undetectable"}]}]}
